# Laboratory results taken from ChEMBL document CHEMBL2407060, “1,1-Dioxo-5,6-dihydro-[4,1,2]oxathiazines, a novel class of 11ß-HSD1 inhibitors for the treatment of diabetes” (Bioorg Med Chem Lett, 2013).
# Columns and labels:
# [1] = Drug metabolism in mouse liver microsomes after 20 mins; assay type: ADME, Microsome; conditions: read-out: Drug metabolism
# [2] = target: 11-beta-hydroxysteroid dehydrogenase 1 (Mus musculus, UniProt P50172); test: Inhibition of mouse 11beta-HSD1
# [3] = Drug metabolism in human liver microsomes after 20 mins; assay type: ADME, Microsome; conditions: read-out: Drug metabolism
# [4] = Chemical stability of the compound under neutral condition; assay type: physicochemical
# [5] = target: 11-beta-hydroxysteroid dehydrogenase 1 (Rattus norvegicus, UniProt P16232); test: Inhibition of rat 11beta-HSD1
# Chain of 11-beta-hydroxysteroid dehydrogenase 1 (Rattus norvegicus, UniProt P16232) (P16232 whole entry): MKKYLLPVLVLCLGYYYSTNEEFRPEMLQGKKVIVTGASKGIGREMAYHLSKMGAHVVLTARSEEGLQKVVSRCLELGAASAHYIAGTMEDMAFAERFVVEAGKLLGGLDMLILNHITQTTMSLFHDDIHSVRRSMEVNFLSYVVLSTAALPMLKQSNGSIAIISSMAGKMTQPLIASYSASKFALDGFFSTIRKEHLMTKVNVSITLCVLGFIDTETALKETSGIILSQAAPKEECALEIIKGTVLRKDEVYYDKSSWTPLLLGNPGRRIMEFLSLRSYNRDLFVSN
# [6] = Chemical stability of the compound under acidic condition; assay type: physicochemical
# [7] = Metabolic stability in plasma (unknown origin) assessed as compound degradation; assay type: ADME, cell-free
# [8] = target: 11-beta-hydroxysteroid dehydrogenase 1 (Homo sapiens, UniProt P28845); test: Inhibition of human 11beta-HSD1
# Chain of 11-beta-hydroxysteroid dehydrogenase 1 (Homo sapiens, UniProt P28845) (P28845 whole entry): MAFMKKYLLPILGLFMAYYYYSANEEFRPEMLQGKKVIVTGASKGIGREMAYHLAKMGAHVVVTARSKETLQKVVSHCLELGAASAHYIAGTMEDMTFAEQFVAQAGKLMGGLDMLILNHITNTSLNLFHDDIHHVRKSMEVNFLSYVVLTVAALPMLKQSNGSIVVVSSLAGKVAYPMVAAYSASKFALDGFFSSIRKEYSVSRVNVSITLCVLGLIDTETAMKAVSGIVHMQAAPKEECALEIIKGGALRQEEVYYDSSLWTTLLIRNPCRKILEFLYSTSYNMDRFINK
# Chain of 11-beta-hydroxysteroid dehydrogenase 1 (Mus musculus, UniProt P50172) (P50172 whole entry): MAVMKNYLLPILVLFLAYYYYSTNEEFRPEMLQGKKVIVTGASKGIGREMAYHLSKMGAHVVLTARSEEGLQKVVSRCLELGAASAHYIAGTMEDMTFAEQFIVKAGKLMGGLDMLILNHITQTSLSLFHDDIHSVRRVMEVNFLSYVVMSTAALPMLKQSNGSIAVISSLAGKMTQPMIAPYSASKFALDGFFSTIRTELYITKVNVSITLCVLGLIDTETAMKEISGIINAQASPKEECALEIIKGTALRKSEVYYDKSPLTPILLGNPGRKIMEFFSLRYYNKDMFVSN
Compound,metabolised at 20 min [1] [%],IC50 [2] [nM],metabolised at 20 min [3] [%],also measured
O=S1(=O)N=C(N[C@@H](CCCO)c2ccccc2)O[C@H]2CCCC[C@H]21,78,294,89,–
O=S1(=O)NC(=NC23CCC(CC2)CC3)O[C@H]2CCCC[C@H]21,87,275,94,–
NC(=O)C[C@H](NC1=NS(=O)(=O)[C@@H]2CCCC[C@@H]2O1)c1ccccc1 (mixture of isomers),35,–,47,–
O=S1(=O)NC(=N[C@@H](CO)c2ccccc2)O[C@H]2CCCC[C@H]21 (mixture of isomers),–,152,–,–
CC1(C)OC(N[C@@H](CCO)c2ccccc2Cl)=NS(=O)(=O)C1(C)C,52,26,25,–
O=S1(=O)NC(=NCC23CC4CC(CC(C4)C2)C3)O[C@H]2CCCC[C@H]21 (mixture of isomers),–,76,–,–
CCC1OC(NC2CCCCC2)=NS(=O)(=O)C12CC2 (centres undefined),–,2510,–,–
O=S1(=O)N=C(NC2CCCCC2)O[C@H]2CCCC[C@H]21,–,–,–,Stability [4]: Stable; IC50 [5]: 246 nM; Stability [6]: Stable; Stability [7]: Stable
CC(C)(O)C[C@H](NC1=NS(=O)(=O)C(C)(C)C(C)(C)O1)c1ccccc1Cl,–,452,–,–
O=S1(=O)NC(=NC23CC4CC(CC2C4)C3)O[C@H]2CCCC[C@H]21 (mixture of isomers),65,9,83,–
O=S1(=O)NC(=NC23CC4CC(CC(O)(C4)C2)C3)O[C@H]2CCCC[C@H]21 (mixture of isomers),–,400,–,–
O=S1(=O)N=C(NC2CCCCC2)O[C@H]2CCNC[C@H]21 (racemic),–,–,–,IC50 [8]: > 2250 nM
CC1(C)CCC(N=C2NS(=O)(=O)[C@@H]3CCCC[C@@H]3O2)CC1 (racemic),55,455,55,–
O=S1(=O)NC(=NCc2ccccc2)O[C@H]2CCCC[C@H]21,–,786,–,–
C[C@H](NC1=NS(=O)(=O)C(C)(C)C(C)(C)O1)c1ccccc1,–,286,–,–
O=S1(=O)N=C(NC2CCCCCCC2)O[C@H]2CCCC[C@H]21 (racemic),84,31,79,–
CC1(C)OC(NC2CCCCC2)=NS(=O)(=O)C12CC2,–,1620,–,–
CC1(C)OC(N[C@@H](CCO)c2ccc(F)cc2)=NS(=O)(=O)C1(C)C,9,199,2,–

Compound,metabolised at 20 min [1] [%],IC50 [2] [nM],metabolised at 20 min [3] [%],also measured
O=S1(=O)NC(=NC2CCCCC2)O[C@@H]2CCNC[C@H]21 (racemic),–,–,–,IC50 [8]: > 2250 nM
O=S1(=O)N=C(NC2CCCCC2)OC2(CCC2)C12CC2,–,813,–,–
C[C@H](NC1=NS(=O)(=O)C(C)(C)C(C)(C)O1)c1ccccc1Cl,–,29,–,–
O=S1(=O)N=C(NC23CCCC2CCC3)O[C@H]2CCCC[C@H]21 (mixture of isomers),–,47,–,–
O=S1(=O)NC(=NC2CCCCC2)O[C@@H]2CCCC[C@H]21,–,–,–,IC50 [5]: 1140 nM
CC1(C)CC(NC2=NS(=O)(=O)[C@@H]3CCCC[C@@H]3O2)CC(C)(C)C1 (racemic),97,57,93,–
O=S1(=O)NC(=NCC2CCCCC2)O[C@H]2CCCC[C@H]21 (racemic),–,729,–,–
O=S1(=O)N=C(NC2CCCCC2)O[C@H]2CCCC[C@H]21 (racemic),19,–,18,–
O=S1(=O)N=C(NC2CCCCCC2)O[C@H]2CCCC[C@H]21 (racemic),54,87,45,–
CN1CC[C@@H]2OC(=NC3CCCCC3)NS(=O)(=O)[C@@H]2C1 (racemic),–,–,–,IC50 [8]: > 2250 nM
CC(C)(NC1=NS(=O)(=O)[C@@H]2CCCC[C@@H]2O1)c1ccccc1 (mixture of isomers),–,444,–,–
CC1(C)OC(NC2CCCCC2)=NS(=O)(=O)C1(C)C,9,865,5,–
O=S1(=O)N=C(N[C@@H](CCO)c2ccccc2)O[C@H]2CCCC[C@H]21 (mixture of isomers),41,16,77,–
O=S1(=O)N=C(NC23CCC(F)(CC2)CC3)O[C@H]2CCCC[C@H]21 (mixture of isomers),–,454,–,–
O=S1(=O)NC(=NC23CC4CC(CC(C4)C2)C3)O[C@H]2CCCC[C@H]21,98,40,91,–
CC1(C)OC(N[C@@H](CCO)c2cccc(C#N)c2)=NS(=O)(=O)C1(C)C,–,110,–,–
CC1(C)OC(N[C@@H](CCO)c2ccccc2)=NS(=O)(=O)C1(C)C,11,232,4,–
O=S1(=O)N=C(NC23CCC(O)(CC2)CC3)O[C@H]2CCCC[C@H]21 (mixture of isomers),20,695,12,–
